{"source": "paper PMC7163398", "about": "(ACS infectious diseases, 2017)", "tested_on": "17S resistant S. aureus USA300 strains", "experiment": "Susceptibility of 17S resistant strains", "format": "cell-based, Staphylococcus aureus", "details": "17S resistant S. aureus USA300 strains tested against 1S", "data": [{"substance": "humimycin A [1S]", "values": [{"measurement": "cross-resistance of 17S resistant strains", "value": "cross-resistance"}]}]}
